The record followed here is EP3964511A1, “BIOORTHOGONAL CHOLESTEROL PROBE AND USES THEREOF” (Universidad del País Vasco/Euskal Herriko Unibertsitatea, priority 2020, dated 2022).

Data set [1] relates to HeLa cells. The data set can be described thus: Competition assay of cellular uptake against natural chol. The class given is cell-based, Human. The following applies: probe fixed at 5 µM, chol 0-1 mM, 1 h co-incubation; result stated at 500 µM chol. The method, then:
A competition assay was designed to test chol-N3 and fluorescently pre-labeled chol-N3 uptake by cells. HeLa cells were seeded onto coverslips in DMEM supplemented with 10% FBS, and co-incubated with a fixed concentration of chol-N3 (5 µM) or with chol-N3 (5 µM) labeled with 10 µM AF 488-DBCO and an increasing concentration of natural chol (ranging from 0 to 1 mM) added externally to the cells. After 1h co-incubation of cells with the mixture, cells were stained in vivo with 25 µM AF 488-DBCO for 60 min, counterstained with DAPI, fixed, and imaged using a ZEISS apotome. Alternaltively, HeLa cells were treated with 5 µM Bodipy-chol in DMEM supplemented with 10% FBS and co-incubated with increasing concentration of natural chol (0-1mM) for 1h. Cells were fixed, and counterstained with DAPI.
Human cervix adenocarcinoma HeLa cells and human bone marrow neuroblast SH-SY5Y cells were obtained from ATCC. HeLa cells were maintained in DMEM (Dulbecco's modified Eagle's medium) supplemented with 10% FBS, 2 mM Glutamax, 100 units/ml penicillin, and 100 µg/ml streptomycin (Life Technologies) at 37 °C with 5% CO2. SH-SY5Y cells were maintained in DMEM/F12 (F12 and Dulbecco's modified Eagle's medium) supplemented with 10% FBS and 1% penicillin and streptomycin. (Life Technologies) at 37°C with 5% CO2.

The nature of data set [2]: In vitro laurdan generalized polarization (GP) in LUVs. The class given is physicochemical. The following applies: POPC LUVs with 10% sterol (labeled adduct 90%:8%:2%), compared with chol. The method, then:
Large unilamellar vesicles (LUV) composed of POPC:chol (90%:10%), POPC:chol-N3 (90%:10%) or POPC/chol-N3/chol-N3-AF 647-DBCO (90%:8%:2%) were prepared following the extrusion method described by Cebecauer M. et al. (Membrane Lipid Nanodomains. Chem Rev, 2018). Laurdan was added in the organic phase before solvent evaporation. Laurdan labeled liposomes at a concentration of 30 µM were kept under continuous stirring, and the determination of GP profiles at different temperatures was performed. All fluorescence measurements were made using an SLM Aminco series 2 (Spectronic Instruments, Rochester, NY) spectrofluorimeter as previously described (Sheng R. et al. Nat Commun 3, 1249, 2012). To quantify changes in the Laurdan emission spectrum, generalized polarization (GP) values were calculated as follow: GP = (IB-IR)/(IB+IR), where IB (at 440 nm) and IR (at 490 nm) correspond to the intensities at the blue and red edges of the emission maxima, respectively (Bernardino de la Serna J et al., J Biol Chem 279, 40715-40722, 2004 and Sezgin E et al., Nat Rev Mol Cell Biol 18, 361-374, 2017).

Structures are written as SMILES.

Take `CC(CCCN=[N+]=[N-])C1CCC2C3CC=C4CC(O)CCC4(C)C3CCC12C` (centres unmarked) [chol-N3, 17-(5-azidopentan-2-yl)-10,13-dimethyl-2,3,4,7,8,9,10,11,12,13,14,15,16,17-tetradecahydro-1H-cyclopenta[a]phenanthren-3-ol]: in data set [1], the “uptake in the presence of increasing extracellular chol” value is listed as “virtually abolished”. For the same compound, the “membrane order (laurdan generalized polarization, GP) versus temperature” value in data set [2] is on record as “same membrane order behavior irrespective of the chol analog used”.
